Results as given in patent publication US20120277269A1 (priority 2008, published 2012).
Several values for one entry are separate records, joined by “and”; a condition that tells them apart may be missing. Identical values can stand only once. Like-named read-outs stand apart in the source and are kept apart here.

How the values were obtained:
[1] = test system: patients with atrial fibrillation
Experimental: The PETRO-Ex study was conducted in 52 centers in the United States, Denmark, The Netherlands, and Sweden.
PETRO-Ex began while the PETRO study was ongoing and investigators were initially kept blinded to patient treatment group until PETRO was completed.
Data were summarized descriptively; no hypothesis was to be tested. Events were analyzed on the basis of the treatment at onset. Incidences were reported as number of patients with events as well as normalized to 100 patient-years on the respective treatment.
Patients who completed PETRO on 50 mg b.i.d. were switched to 150 mg q.d. upon entry in the PETRO-Ex study (N=93 patients). […] Patients who were down titrated to 50 mg q.d. based on a glomerular filtration rate ≦50 mL/min during PETRO were excluded from the long-term trial; patients down-titrated in other dose levels remained on the q.d. treatment at that dose.
The total exposure reflects both trials, PETRO and PETRO-Ex, together.

[2] = human, in vivo
Experimental: Ezekowitz M D, et al., Dabigatran with or without concomitant aspirin compared with warfarin alone in patients with nonvalvular atrial fibrillation (PETRO study), Am. […] The PETRO study is described below.
Peak levels are seen within 2-3 hours of oral administration. […] Steady-state is reached within 2-3 days with a twice daily regimen. […] The remainder undergoes conjugation with glucuronic acid to form acylglucuronides which are excreted primarily in the bile.

[3] = test system: patients with chronic atrial fibrillation; assay: PETRO phase 2 12-week dose finding study; format: in vivo, human
Source text: Primary endpoints were bleeding events and changes in D-dimer. […] Minor bleeding was dose related.

[4] = test system: activated partial thromboplastin time (aPTT), ecarin clotting time, and thrombin clotting time; assay: Anticoagulant pharmacodynamics (clotting times)
[5] = test system: patients with atrial fibrillation at risk of stroke; parameters: Stroke, Ischemic or Unspecified, RR: dose or concentration left out as unconfirmed
Source text: Median follow-up was 2.0 years and the primary outcome was stroke or systemic embolism.
Patients were recruited from 951 clinical centers in 44 countries. In brief, patients were eligible if they had atrial fibrillation documented on electrocardiogram at screening or within 6 months; and at least one of the following: prior stroke or transient ischemic attack; left ventricular ejection fraction less than 40%; New York Heart Association heart failure symptoms of Class 2 or greater within 6 months; age at least 75 years; or age at least 65 years with diabetes mellitus, hypertension or coronary artery disease.
The time in therapeutic range was calculated by the method of Rosendaal (Rosendaal F R, et al., A method to determine the optimal intensity of oral anticoagulant therapy, Thromb Haemost, 1993, 69:236-239), excluding INRs from the first week and after discontinuations. […] Concomitant use of aspirin (less than 100 mg/day) or other antiplatelet agents was allowed.
Liver function testing was performed monthly during the first year of follow-up.
The primary study outcome was stroke or systemic embolism. The primary safety outcome was major hemorrhage. Secondary outcomes were stroke, systemic embolism and death. Other outcomes were myocardial infarction, pulmonary embolism, transient ischemic attacks, and hospitalizations. The primary net benefit-risk outcome was the composite of stroke, systemic embolism, pulmonary embolism, myocardial infarction, death or major hemorrhage. Stroke was defined as sudden onset of focal neurological deficit consistent with the territory of a major cerebral artery and categorized as ischemic, hemorrhagic or unspecified. Hemorrhagic transformation of ischemic stroke was not considered as hemorrhagic stroke. Intracranial hemorrhage included hemorrhagic stroke and sub-dural or sub-arachnoid hemorrhage. Systemic embolism was an acute vascular occlusion of an extremity or organ documented by imaging, surgery or autopsy. Major bleeding was defined as a reduction in hemoglobin level of at least […] or transfusion of at least 2 units of blood or symptomatic bleeding in a critical area or organ. Life-threatening bleeding was a subset of major bleeding that included fatal bleeding, symptomatic intracranial bleeding, bleeding with hemoglobin decrease of more than […] or requiring transfusion of more than 4 units of blood or requiring inotropic agents or necessitating surgery. All other bleeding was considered minor.
All primary and secondary outcome events were blindly and doubly adjudicated. An international team of adjudicators reviewed documents in local languages after blinding; or documents were translated by a independent group and blinded centrally. All transient ischemic attacks were reviewed to ensure that strokes had not been missed. To detect possible unreported events, symptom questionnaires were regularly administered to patients, and adverse events and hospitalization reports were scrutinized for unreported primary or secondary outcomes.
If maximum of the two p-values was greater than 0.025, the minimum of the two p-values must be less than 0.0125, one-sided, to claim statistical significance. All analyses were based on intention-to-treat.

[6] = test system: Patients with Non-Valvular Atrial Fibrillation; details: in vivo; cited from earlier work
[7] = individual patients with LFT abnormalities, one table line per patient (age c0, sex c1), # = with concomitant Bilirubin elevation to >2xULN

## CCCCCCOC(=O)NC(=N)c1ccc(NCc2nc3cc(C(=O)N(CCC(=O)OCC)c4ccccn4)ccc3n2C)cc1 [Dabigatran etexilate, 1-methyl-2-[N-[4-(N-n-hexyloxycarbonylamidino)phenyl]aminomethyl]benzimidazol-5-ylcarboxylic ac id-N-(2-pyridyl)-N-(2-ethoxycarbonylethyl)amides]
[1]; 50 mg b.i.d.
  ALT or AST >2xULN, number of patients: 0
  ALT or AST >3xULN and Bili >2xULN within 30 days, number of patients: 0
  ALT or AST >3xULN, number of patients: 0
  ALT or AST >5xULN, number of patients: 0
  Adverse Events leading to premature discontinuation, number of patients: 5
  MI, number of patients: 0
  Major Bleeds with aspirin, number of patients: 0
  Major Bleeds without aspirin, number of patients: 0
  Major Bleeds, number of patients: 0
  Other MACE, number of patients: 2
  Stroke and Systemic Thromboembolism, number of patients: 3
  TIA, number of patients: 0
[1]; 50 mg q.d.
  ALT or AST >2xULN, number of patients: 0
  ALT or AST >3xULN and Bili >2xULN within 30 days, number of patients: 0
  ALT or AST >3xULN, number of patients: 0
  ALT or AST >5xULN, number of patients: 0
  Adverse Events leading to premature discontinuation, number of patients: 0
  MI, number of patients: 0
  Major Bleeds with aspirin, number of patients: 0
  Major Bleeds without aspirin, number of patients: 0
  Major Bleeds, number of patients: 0
  Other MACE, number of patients: 0
  Stroke and Systemic Thromboembolism, number of patients: 0
  TIA, number of patients: 0
[1]; 150 mg b.i.d.
  ALT or AST >2xULN, number of patients: 21
  ALT or AST >3xULN and Bili >2xULN within 30 days, number of patients: 3
  ALT or AST >3xULN, number of patients: 13
  ALT or AST >5xULN, number of patients: 7
  Adverse Events leading to premature discontinuation, number of patients: 67
  MI, number of patients: 6
  Major Bleeds with aspirin, number of patients: 11
  Major Bleeds without aspirin, number of patients: 18
  Major Bleeds without aspirin, rate: 3.2 % per year
  Major Bleeds, number of patients: 29
  Other MACE, number of patients: 7
  Stroke and Systemic Thromboembolism, number of patients: 7
  TIA, number of patients: 1
[1]; 150 mg q.d.
  ALT or AST >2xULN, number of patients: 2
  ALT or AST >3xULN and Bili >2xULN within 30 days, number of patients: 0
  ALT or AST >3xULN, number of patients: 0
  ALT or AST >5xULN, number of patients: 0
  Adverse Events leading to premature discontinuation, number of patients: 8
  MI, number of patients: 0
  Major Bleeds with aspirin, number of patients: 0
  Major Bleeds without aspirin, number of patients: 3
  Major Bleeds without aspirin, rate: 6.5 % per year
  Major Bleeds, number of patients: 3
  Other MACE, number of patients: 0
  Stroke and Systemic Thromboembolism, number of patients: 3
  TIA, number of patients: 0
[1]; 300 mg b.i.d.
  ALT or AST >2xULN, number of patients: 4
  ALT or AST >3xULN and Bili >2xULN within 30 days, number of patients: 0
  ALT or AST >3xULN, number of patients: 2
  ALT or AST >5xULN, number of patients: 1
  Adverse Events leading to premature discontinuation, number of patients: 21
  MI, number of patients: 0
  Major Bleeds with aspirin, number of patients: 6
  Major Bleeds without aspirin, number of patients: 4
  Major Bleeds without aspirin, rate: 6.3 % per year
  Major Bleeds, number of patients: 10
  Other MACE, number of patients: 1
  Stroke and Systemic Thromboembolism, number of patients: 1
  TIA, number of patients: 0
[1]; 300 mg q.d.
  ALT or AST >2xULN, number of patients: 3
  ALT or AST >3xULN and Bili >2xULN within 30 days, number of patients: 1
  ALT or AST >3xULN, number of patients: 3
  ALT or AST >5xULN, number of patients: 3
  Adverse Events leading to premature discontinuation, number of patients: 19
  MI, number of patients: 1
  Major Bleeds with aspirin, number of patients: 2
  Major Bleeds without aspirin, number of patients: 3
  Major Bleeds without aspirin, rate: 2.1 % per year
  Major Bleeds, number of patients: 5
  Other MACE, number of patients: 1
  Stroke and Systemic Thromboembolism, number of patients: 5
  TIA, number of patients: 0
[1]; PETRO-Ex
  Serious adverse events: cardiac disorders, number of patients: 80
  Serious adverse events: gastrointestinal disorders, number of patients: 28
  Serious adverse events: infections, number of patients: 34
  Serious adverse events: nervous system disorders, number of patients: 33
[1]; PETRO-Ex, including bleeding and thrombotic events
  Serious adverse events, number of patients: 184
[1]; Total, all doses
  ALT or AST >2xULN, number of patients: 30
  ALT or AST >3xULN and Bili >2xULN within 30 days, number of patients: 4
  ALT or AST >3xULN, number of patients: 18
  ALT or AST >5xULN, number of patients: 11
  Adverse Events leading to premature discontinuation, number of patients: 120
  MI, number of patients: 7
  Major Bleeds with aspirin, number of patients: 19
  Major Bleeds without aspirin, number of patients: 26
  Major Bleeds without aspirin, rate: 3.2 % per year
  Major Bleeds, number of patients: 44
  Other MACE, number of patients: 11
  Stroke and Systemic Thromboembolism, number of patients: 20
  TIA, number of patients: 1
[1]; Total, all doses, listed as dabigatran etexilate
  ALT or AST >3xULN and Bili >2xULN within 30 days, number of patients: four
[2]; po
  Oral bioavailability, average: 6.5%
  Time to peak levels: 2 to 3 h
[3]; 300 mg b.i.d. plus ASA groups, 12 weeks
  Major bleeding events, number: Four
[3]; all dabigatran etexilate-treated patients
  Elevated transaminases >3× upper limit of normal (ULN): 0.9%
[3]; in vivo
  Minor bleeding: dose related
[4]
  Onset of anticoagulant effect after dosing: within one hour

## [H]/N=C(/N)c1ccc(NCc2nc3cc(C(=O)N(CCC(=O)O)c4ccccn4)ccc3n2C)cc1 [Dabigatran]
[5]
  Stroke, Ischemic or Unspecified, RR: 0.68
[5]; Dabigatran 110 mg vs. Warfarin
  Stroke, systemic embolism, pulmonary embolism, myocardial infarction death or major bleed (net benefit), RR: 0.92
[5]; Dabigatran 150 mg vs. 110 mg
  Stroke, systemic embolism, pulmonary embolism, myocardial infarction death or major bleed (net benefit), RR: 0.98
[5]; Dabigatran 150 mg vs. Warfarin
  Stroke, systemic embolism, pulmonary embolism, myocardial infarction death or major bleed (net benefit), RR: 0.90
[5]; Dabigatran 180 mg vs. 110 mg
  Stroke, RR: 0.70
[5]; human, in vivo
  Hepatotoxicity in serial measurement of liver function tests: no evidence of hepatotoxicity
[1]; [7]
  LFT abnormality ALT/ULN: >5x (4×) and >5x^# (2×) and >3x (5×) and >3x^#
  LFT abnormality AST/ULN: >5x^# (4×) and >5x (4×) and >3x (5×)
[2]
  Time to steady-state: 2 to 3 days
[4]
  Effect on aPTT, ecarin clotting time, and thrombin clotting time: dose dependent prolongation

## CCOC(=O)CN[C@@H](C(=O)N1CC[C@H]1C(=O)NCc1ccc(/C(N)=N\O)cc1)C1CCCCC1 [Ximelagatran]
[6]
  Hepatotoxicity: found to be hepatotoxic
